Assays:
[1] = biological target: Epidermal growth factor receptor (Homo sapiens, UniProt P00533); assay: Inhibition of wild type EGFR (unknown origin) autophosphorylation preincubated for 30 mins followed by ATP addition measured after 1 hr by kinase-glo luminescence assay
[2] = biological target: Epidermal growth factor receptor (Homo sapiens, UniProt P00533, L858R/T790M); type: protein assay
[3] = test system: NCI-H358; assay: Antiproliferative activity against human NCI-H358 cells assessed as reduction in cell viability after 48 hrs by cck8 assay; type: functional, cell-based; conditions: NCI-H358, 48 h
[4] = test system: A549; assay: Antiproliferative activity against human A549 cells assessed as reduction in cell viability after 48 hrs by cck8 assay; type: functional, cell-based; conditions: A549, 48 h
[5] = Cytotoxicity against HEK293T assessed as reduction in cell viability by MTT assay; type: cell-based, HEK-293T; conditions: human, HEK293T cells

Epidermal growth factor receptor (Homo sapiens, UniProt P00533), sequence (P00533 whole entry): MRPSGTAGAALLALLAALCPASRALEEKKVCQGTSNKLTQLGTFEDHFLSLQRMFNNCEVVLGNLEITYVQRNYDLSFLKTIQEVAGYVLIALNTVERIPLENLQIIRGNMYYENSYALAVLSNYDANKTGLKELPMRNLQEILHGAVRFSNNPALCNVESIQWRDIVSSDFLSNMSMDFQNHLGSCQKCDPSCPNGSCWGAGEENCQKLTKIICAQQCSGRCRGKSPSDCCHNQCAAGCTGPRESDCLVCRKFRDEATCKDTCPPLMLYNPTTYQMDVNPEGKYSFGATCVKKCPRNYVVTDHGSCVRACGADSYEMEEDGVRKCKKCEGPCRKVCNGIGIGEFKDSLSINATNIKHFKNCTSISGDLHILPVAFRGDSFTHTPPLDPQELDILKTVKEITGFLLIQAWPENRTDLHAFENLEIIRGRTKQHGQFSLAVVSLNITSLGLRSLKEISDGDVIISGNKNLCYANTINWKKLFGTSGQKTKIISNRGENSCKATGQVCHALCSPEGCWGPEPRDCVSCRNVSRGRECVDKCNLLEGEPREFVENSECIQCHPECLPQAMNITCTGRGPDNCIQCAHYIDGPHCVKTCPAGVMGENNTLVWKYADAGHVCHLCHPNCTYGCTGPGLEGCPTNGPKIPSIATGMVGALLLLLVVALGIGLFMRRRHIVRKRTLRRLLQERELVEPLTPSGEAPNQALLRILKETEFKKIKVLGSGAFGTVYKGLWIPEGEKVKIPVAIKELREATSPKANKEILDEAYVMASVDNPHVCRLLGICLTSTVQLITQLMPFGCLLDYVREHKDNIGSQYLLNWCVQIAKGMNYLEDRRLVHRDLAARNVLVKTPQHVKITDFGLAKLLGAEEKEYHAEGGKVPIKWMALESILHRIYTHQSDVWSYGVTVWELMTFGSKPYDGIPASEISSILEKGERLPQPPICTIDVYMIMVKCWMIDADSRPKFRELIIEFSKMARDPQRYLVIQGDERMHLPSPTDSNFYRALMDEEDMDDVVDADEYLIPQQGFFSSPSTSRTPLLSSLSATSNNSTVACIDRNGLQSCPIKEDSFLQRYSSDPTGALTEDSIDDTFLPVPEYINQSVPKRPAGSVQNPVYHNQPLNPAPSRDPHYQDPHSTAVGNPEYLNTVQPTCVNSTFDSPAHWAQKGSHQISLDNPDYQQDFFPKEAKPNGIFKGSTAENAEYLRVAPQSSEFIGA
Epidermal growth factor receptor (Homo sapiens, UniProt P00533, L858R/T790M), sequence (P00533 25-1210 T790M/L858R limits assumed): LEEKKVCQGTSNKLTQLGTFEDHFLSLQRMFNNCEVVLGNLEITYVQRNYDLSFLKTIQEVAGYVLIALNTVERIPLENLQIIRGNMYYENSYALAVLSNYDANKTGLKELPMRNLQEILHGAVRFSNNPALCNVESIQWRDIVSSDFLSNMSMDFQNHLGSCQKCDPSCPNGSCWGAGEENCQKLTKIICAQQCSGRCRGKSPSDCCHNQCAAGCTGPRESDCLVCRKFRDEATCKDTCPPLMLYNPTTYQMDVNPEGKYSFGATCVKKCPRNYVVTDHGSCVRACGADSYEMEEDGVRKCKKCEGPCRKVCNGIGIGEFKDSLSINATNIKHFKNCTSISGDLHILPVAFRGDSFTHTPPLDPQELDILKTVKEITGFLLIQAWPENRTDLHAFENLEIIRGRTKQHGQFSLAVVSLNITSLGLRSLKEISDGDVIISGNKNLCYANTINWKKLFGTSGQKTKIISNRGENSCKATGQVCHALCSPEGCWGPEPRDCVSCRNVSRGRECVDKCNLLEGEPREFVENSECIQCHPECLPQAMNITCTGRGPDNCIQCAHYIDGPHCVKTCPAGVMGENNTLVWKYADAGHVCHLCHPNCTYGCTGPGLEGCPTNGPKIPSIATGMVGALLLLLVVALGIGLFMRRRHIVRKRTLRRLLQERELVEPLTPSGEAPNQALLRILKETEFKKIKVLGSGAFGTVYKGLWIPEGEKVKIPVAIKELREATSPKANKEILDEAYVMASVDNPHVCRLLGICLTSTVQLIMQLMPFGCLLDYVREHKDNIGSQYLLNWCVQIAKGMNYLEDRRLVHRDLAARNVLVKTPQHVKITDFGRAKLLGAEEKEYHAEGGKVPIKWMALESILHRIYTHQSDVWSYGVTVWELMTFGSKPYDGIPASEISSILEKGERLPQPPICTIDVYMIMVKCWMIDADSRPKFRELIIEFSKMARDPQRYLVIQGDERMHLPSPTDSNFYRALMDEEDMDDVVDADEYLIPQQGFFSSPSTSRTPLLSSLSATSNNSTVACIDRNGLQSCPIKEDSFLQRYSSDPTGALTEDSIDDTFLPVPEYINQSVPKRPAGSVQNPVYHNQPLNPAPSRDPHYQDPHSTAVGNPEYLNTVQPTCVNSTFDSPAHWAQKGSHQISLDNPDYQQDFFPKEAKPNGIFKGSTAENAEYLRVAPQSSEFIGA

IC50 [1]	IC50 [2]	IC50 [3]	IC50 [4]	Structure (SMILES)	CC50 [5]
363 nM	> 1000 nM	–	–	CCOC(C)Oc1cc2ncnc(Nc3ccc(C)c([N+](=O)[O-])c3)c2c2c1OCCO2 (stereo not given)	–
16.7 nM	324 nM	–	–	C#Cc1cccc(Nc2ncnc3cc(OC4CCOC4)c4c(c23)OCCO4)c1 (stereo not given)	–
9.2 nM	21.5 nM	8890 nM	10500 nM	C#Cc1cccc(Nc2ncnc3cc(OCC)c4c(c23)OCCO4)c1	28200 nM
82.5 nM	> 1000 nM	–	–	CC(C)Oc1cc2ncnc(Nc3ccc(F)c([N+](=O)[O-])c3)c2c2c1OCCO2	–
2 nM	6.9 nM	22700 nM	16100 nM	CCOc1cc2ncnc(Nc3ccc(F)c(Cl)c3)c2c2c1OCCO2	37000 nM
10.9 nM	> 1000 nM	–	–	C#Cc1cccc(Nc2ncnc3cc(OC)c4c(c23)OCCO4)c1	11700 nM
103 nM	1300 nM	–	–	CC(C)Oc1cc2ncnc(Nc3ccc(Cl)c([N+](=O)[O-])c3)c2c2c1OCCO2	–
–	–	3910 nM	7350 nM	C#Cc1cccc(Nc2ncnc3cc(OCCOC)c(OCCOC)cc23)c1 [ERLOTINIB]	28200 nM
> 1000 nM	> 1000 nM	–	–	COc1ccc(Nc2ncnc3cc(OC(C)C)c4c(c23)OCCO4)cc1[N+](=O)[O-]	–
352 nM	> 1000 nM	–	–	CCOC(C)Oc1cc2ncnc(Nc3ccc(F)c(C#N)c3)c2c2c1OCCO2 (stereo not given)	–
83.9 nM	–	–	–	Fc1cccc(Nc2ncnc3cc(OCCCN4CCOCC4)c4c(c23)OCCO4)c1	–
314 nM	> 1000 nM	–	–	CC(C)Oc1cc2ncnc(Nc3ccc(F)c(C#N)c3)c2c2c1OCCO2	–
> 1000 nM	> 1000 nM	–	–	COCCOc1cc2ncnc(Nc3ccc(OC)c([N+](=O)[O-])c3)c2c2c1OCCO2	–
21 nM	8.1 nM	7350 nM	9930 nM	C#Cc1cccc(Nc2ncnc3cc(OCCOC)c4c(c23)OCCO4)c1	22100 nM
24.1 nM	> 1000 nM	–	–	Fc1ccc(Nc2ncnc3cc(OCC4CCCO4)c4c(c23)OCCO4)cc1Cl (stereo not given)	–
57.8 nM	> 1000 nM	–	–	C#Cc1cccc(Nc2ncnc3cc(OC4CCOCC4)c4c(c23)OCCO4)c1	–
4.4 nM	70 nM	–	–	CCOc1cc2ncnc(Nc3cccc(OC)c3)c2c2c1OCCO2	25300 nM
18.5 nM	–	–	–	Brc1cccc(Nc2ncnc3cc(OCCCN4CCOCC4)c4c(c23)OCCO4)c1	–
21.9 nM	–	–	–	Clc1cccc(Nc2ncnc3cc(OCCCN4CCOCC4)c4c(c23)OCCO4)c1	–
97.2 nM	–	–	–	FC(F)(F)c1cccc(Nc2ncnc3cc(OCCCN4CCOCC4)c4c(c23)OCCO4)c1	–
22.5 nM	1000 nM	–	–	COc1cc2ncnc(Nc3ccc(F)c(Cl)c3)c2c2c1OCCO2	–

IC50 [1]	IC50 [2]	IC50 [3]	IC50 [4]	Structure (SMILES)	CC50 [5]
232 nM	271 nM	–	–	CCOC(C)Oc1cc2ncnc(Nc3ccc(F)c([N+](=O)[O-])c3)c2c2c1OCCO2 (stereo not given)	–
416 nM	> 1000 nM	–	–	Cc1ccc(Nc2ncnc3cc(OC(C)C)c4c(c23)OCCO4)cc1C#N	–
58.8 nM	> 1000 nM	–	–	Fc1ccc(Nc2ncnc3cc(OC4CCOCC4)c4c(c23)OCCO4)cc1Cl	–
13.1 nM	10.5 nM	5930 nM	13900 nM	COCCOc1cc2ncnc(Nc3ccc(F)c(Cl)c3)c2c2c1OCCO2	–
29.1 nM	46.3 nM	6920 nM	11600 nM	CC(C)Oc1cc2ncnc(Nc3ccc(F)c(Cl)c3)c2c2c1OCCO2	–
27.3 nM	121 nM	–	–	C#Cc1cccc(Nc2ncnc3cc(OCC4CCCO4)c4c(c23)OCCO4)c1 (stereo not given)	40200 nM
3.6 nM	124 nM	–	–	CCOc1cc2ncnc(Nc3ccc(C)cc3)c2c2c1OCCO2	27400 nM
> 1000 nM	> 1000 nM	–	–	CCOC(C)Oc1cc2ncnc(Nc3ccc(OC)c([N+](=O)[O-])c3)c2c2c1OCCO2 (stereo not given)	–
20.5 nM	151 nM	–	–	Fc1ccc(Nc2ncnc3cc(OC4CCOC4)c4c(c23)OCCO4)cc1Cl (stereo not given)	–
160 nM	109 nM	–	–	COCCOc1cc2ncnc(Nc3cccc(OC)c3)c2c2c1OCCO2	20800 nM
388 nM	> 1000 nM	–	–	COCCOc1cc2ncnc(Nc3ccc(F)c(C#N)c3)c2c2c1OCCO2	–
74.6 nM	> 1000 nM	–	–	COCCOc1cc2ncnc(Nc3ccc(C)c([N+](=O)[O-])c3)c2c2c1OCCO2	–
474 nM	76.1 nM	–	–	C#Cc1cccc(Nc2ncnc3cc(OC(C)COC)c4c(c23)OCCO4)c1 (stereo not given)	–
36.2 nM	> 1000 nM	–	–	COCCOc1cc2ncnc(Nc3ccc(Cl)c([N+](=O)[O-])c3)c2c2c1OCCO2	–
25.9 nM	–	–	–	Fc1ccc(Nc2ncnc3cc(OCCCN4CCOCC4)c4c(c23)OCCO4)cc1Cl	–
> 1000 nM	> 1000 nM	–	–	CCOC(C)Oc1cc2ncnc(Nc3ccc(C)c(C#N)c3)c2c2c1OCCO2 (stereo not given)	–
184 nM	> 1000 nM	–	–	Cc1ccc(Nc2ncnc3cc(OC(C)C)c4c(c23)OCCO4)cc1[N+](=O)[O-]	–
200 nM	> 1000 nM	–	–	COCCOc1cc2ncnc(Nc3ccc(F)cc3)c2c2c1OCCO2	25900 nM
6.7 nM	33.8 nM	17300 nM	11800 nM	CCOc1cc2ncnc(Nc3ccc(C)c(Cl)c3)c2c2c1OCCO2	–
9.7 nM	71 nM	–	–	CCOc1cc2ncnc(Nc3cccc([N+](=O)[O-])c3)c2c2c1OCCO2	42000 nM
23.7 nM	31.4 nM	4540 nM	6080 nM	C#Cc1cccc(Nc2ncnc3cc(OC(C)C)c4c(c23)OCCO4)c1	22100 nM
